# Structures can show the parent of a compound that is named as a salt. Where two headings read alike, the source gives them in different places.
# Assays:
# rat primary hepatocytes [1] = assay: MMP assay in rat primary hepatocytes; conditions: for IC50: read-out: MMP assays IC50 (µM) Rat Hepatocytes
# HepG2 cells [2] = conditions: cited from earlier work; for IC50: read-out: MMP assays IC50 (µM) qHTS-HepG2
# HepG2 cells [3] = conditions: for IC50: read-out: MMP assays IC50 (µM) HepG2
# rat primary hepatocytes [4] = tested on: rat primary hepatocytes
compound,measurement,setting,value
"CC(C)c1ccc(O)c(C(C)C)c1 [2,4-Diisopropylphenol]",MMP assays IC50 (µM) Rat Hepatocytes,rat primary hepatocytes [1],inactive
same,MMP assays efficacy (%) qHTS-HepG2,HepG2 cells [2],-107±10%
same,IC50,HepG2 cells [2],17.2 ± 1.99 µM
same,MMP assays efficacy (%) HepG2,HepG2 cells [3],-115%
same,IC50,HepG2 cells [3],35.5 µM
same,MMP assays efficacy (%) Rat Hepatocytes,rat primary hepatocytes [4],inactive
"Nc1ccc(-c2ccc(N)c(N)c2)cc1N [3,3',4,4'-Tetraaminobiphenyl tetrahydrochloride]",IC50,rat primary hepatocytes [1],9.46 ± 4.43 µM
same,MMP assays efficacy (%) qHTS-HepG2,HepG2 cells [2],-92±8%
same,IC50,HepG2 cells [2],0.34 ± 0.26 µM
same,MMP assays efficacy (%) HepG2,HepG2 cells [3],-82%
same,IC50,HepG2 cells [3],2 µM
same,MMP assays efficacy (%) Rat Hepatocytes,rat primary hepatocytes [4],-39±5%
"Nc1ccc(-c2ccc(N)c(N)c2)cc1N [3,3'-Diaminobenzidine]",IC50,rat primary hepatocytes [1],30.7 ± 28.3 µM
same,MMP assays efficacy (%) qHTS-HepG2,HepG2 cells [2],-115±16%
same,IC50,HepG2 cells [2],13.7 ± 14.9 µM
same,MMP assays efficacy (%) HepG2,HepG2 cells [3],-55%
same,IC50,HepG2 cells [3],4.47 µM
same,MMP assays efficacy (%) Rat Hepatocytes,rat primary hepatocytes [4],-62±22%
COc1cc([C@@H]2c3cc4c(cc3[C@@H](O)[C@H]3COC(=O)[C@H]23)OCO4)cc(OC)c1O [4'-Demethylepipodophyllotoxin],MMP assays IC50 (µM) Rat Hepatocytes,rat primary hepatocytes [1],inactive
same,MMP assays efficacy (%) qHTS-HepG2,HepG2 cells [2],-51±8%
same,IC50,HepG2 cells [2],2.66 ± 3.92 µM
same,MMP assays efficacy (%) HepG2,HepG2 cells [3],-63%
same,IC50,HepG2 cells [3],2.18 µM
same,MMP assays efficacy (%) Rat Hepatocytes,rat primary hepatocytes [4],inactive
"O=C1CCCc2c1cc1ccc3cccc4ccc2c1c34 [9,10-Dihydrobenzo[a]pyren-7(8H)-one]",IC50,rat primary hepatocytes [1],16.8 ± 7.33 µM
same,MMP assays efficacy (%) qHTS-HepG2,HepG2 cells [2],-90±6%
same,IC50,HepG2 cells [2],9.81 ± 2.08 µM
same,MMP assays IC50 (µM) HepG2,HepG2 cells [3],inactive
same,MMP assays efficacy (%) HepG2,HepG2 cells [3],inactive
same,MMP assays efficacy (%) Rat Hepatocytes,rat primary hepatocytes [4],-79±35%
CC(=Cc1ccccc1)[N+](=O)[O-] [(2-Nitro-1-propenyl)benzene],IC50,"rat primary hepatocytes [1]; Rattus norvegicus, Hepatocyte",25.9 ± 8.35 µM
same,MMP assays efficacy (%) qHTS-HepG2,HepG2 cells [2],-105±10%
same,IC50,HepG2 cells [2],38.6 ± 15.3 µM
same,MMP assays IC50 (µM) HepG2,HepG2 cells [3],inactive
same,MMP assays efficacy (%) HepG2,HepG2 cells [3],inactive
same,MMP assays efficacy (%) Rat Hepatocytes,rat primary hepatocytes [4],-107±47%
O=C1NCN(c2ccccc2)C12CCN(CCCOc1ccc(F)cc1)CC2 [AMI-193],IC50,rat primary hepatocytes [1],26 ± 12.2 µM
same,MMP assays efficacy (%) qHTS-HepG2,HepG2 cells [2],-73±11%
same,IC50,HepG2 cells [2],5.82 ± 3.05 µM
same,MMP assays efficacy (%) HepG2,HepG2 cells [3],-75%
same,IC50,HepG2 cells [3],7.74 µM
same,MMP assays efficacy (%) Rat Hepatocytes,rat primary hepatocytes [4],-37±21%
CC=O [Acetaldehyde],IC50,rat primary hepatocytes [1],6.65 ± 4.48 µM
same,MMP assays efficacy (%) qHTS-HepG2,HepG2 cells [2],-90±14%
same,IC50,HepG2 cells [2],18 ± 6.38 µM
same,MMP assays IC50 (µM) HepG2,HepG2 cells [3],inactive
same,MMP assays efficacy (%) HepG2,HepG2 cells [3],inactive
same,MMP assays efficacy (%) Rat Hepatocytes,rat primary hepatocytes [4],-52±35%
CCCCC(CC)C(=O)[O-].CCCCC(CC)C(=O)[O-].[Ba+2] (stereo not drawn) [Barium bis(2-ethylhexanoate)],MMP assays IC50 (µM) Rat Hepatocytes,rat primary hepatocytes [1],inactive
same,MMP assays efficacy (%) qHTS-HepG2,HepG2 cells [2],-58±20%
same,IC50,HepG2 cells [2],15.4 ± 10.3 µM
same,MMP assays IC50 (µM) HepG2,HepG2 cells [3],inactive
same,MMP assays efficacy (%) HepG2,HepG2 cells [3],inactive
same,MMP assays efficacy (%) Rat Hepatocytes,rat primary hepatocytes [4],-43±30%
[Ba+2].[Cl-].[Cl-] [Barium chloride],MMP assays IC50 (µM) Rat Hepatocytes,rat primary hepatocytes [1],inactive
same,MMP assays efficacy (%) qHTS-HepG2,HepG2 cells [2],-68±11%
same,IC50,HepG2 cells [2],16.6 ± 8.5 µM
same,MMP assays efficacy (%) HepG2,HepG2 cells [3],-46%
same,IC50,HepG2 cells [3],39.8 µM
same,MMP assays efficacy (%) Rat Hepatocytes,rat primary hepatocytes [4],inactive
Cl.Cl.Nc1ccc(-c2ccc(N)cc2)cc1 [Benzidine dihydrochloride],MMP assays IC50 (µM) Rat Hepatocytes,rat primary hepatocytes [1],inactive
same,MMP assays IC50 (µM) qHTS-HepG2,HepG2 cells [2],inactive
same,MMP assays efficacy (%) qHTS-HepG2,HepG2 cells [2],inactive
same,MMP assays efficacy (%) HepG2,HepG2 cells [3],-67%
same,IC50,HepG2 cells [3],17.7 µM
same,MMP assays efficacy (%) Rat Hepatocytes,rat primary hepatocytes [4],inactive
CCC1(c2ccccc2)C(=O)NC(=O)N(C(=O)c2ccccc2)C1=O (stereo not drawn) [Benzobarbital],MMP assays IC50 (µM) Rat Hepatocytes,rat primary hepatocytes [1],inactive
same,MMP assays efficacy (%) qHTS-HepG2,HepG2 cells [2],-82±27%
same,IC50,HepG2 cells [2],24.1 ± 5.12 µM
same,MMP assays IC50 (µM) HepG2,HepG2 cells [3],inactive
same,MMP assays efficacy (%) HepG2,HepG2 cells [3],inactive
same,MMP assays efficacy (%) Rat Hepatocytes,rat primary hepatocytes [4],inactive
Cl.Cl.NNCc1ccccc1 [Benzylhydrazine dihydrochloride],MMP assays IC50 (µM) Rat Hepatocytes,rat primary hepatocytes [1],inactive
same,MMP assays efficacy (%) qHTS-HepG2,HepG2 cells [2],-106±12%
same,IC50,HepG2 cells [2],27.8 ± 3.21 µM
same,MMP assays efficacy (%) HepG2,HepG2 cells [3],-88%
same,IC50,HepG2 cells [3],19.9 µM
same,MMP assays efficacy (%) Rat Hepatocytes,rat primary hepatocytes [4],inactive
C=C(C)C(=O)OCC(O)COc1ccc(C(C)(C)c2ccc(OCC(O)COC(=O)C(=C)C)cc2)cc1 (stereo not drawn) [Bisphenol A glycidyl methacrylate],IC50,rat primary hepatocytes [1],38.1 ± 9.22 µM
same,MMP assays efficacy (%) qHTS-HepG2,HepG2 cells [2],-121±28%
same,IC50,HepG2 cells [2],12.2 ± 11.9 µM
same,MMP assays efficacy (%) HepG2,HepG2 cells [3],-118%
same,IC50,HepG2 cells [3],15.8 µM
same,MMP assays efficacy (%) Rat Hepatocytes,rat primary hepatocytes [4],-70±50%
CC(c1ccc(O)cc1)c1ccc(O)cc1 [Bisphenol E],IC50,rat primary hepatocytes [1],36.5 ± 19.2 µM
same,MMP assays efficacy (%) qHTS-HepG2,HepG2 cells [2],-127±8%
same,IC50,HepG2 cells [2],27.6 ± 1.8 µM
same,MMP assays efficacy (%) HepG2,HepG2 cells [3],-147%
same,IC50,HepG2 cells [3],25.1 µM
same,MMP assays efficacy (%) Rat Hepatocytes,rat primary hepatocytes [4],-56±19%
O=c1oc2ccccc2c(O)c1C(CC(O)c1ccc(-c2ccc(Br)cc2)cc1)c1ccccc1 (stereo not drawn) [Bromadiolone],IC50,rat primary hepatocytes [1],3.4 ± 0.83 µM
same,MMP assays efficacy (%) qHTS-HepG2,HepG2 cells [2],-105±3%
same,IC50,HepG2 cells [2],16.7 ± 1.13 µM
same,MMP assays efficacy (%) HepG2,HepG2 cells [3],-108%
same,IC50,HepG2 cells [3],4.35 µM
same,MMP assays efficacy (%) Rat Hepatocytes,rat primary hepatocytes [4],-79±51%

# Reference: publication PMC6112376, “Comprehensive Analyses and Prioritization of Tox21 10K Chemicals Affecting Mitochondrial Function by in-Depth Mechanistic Studies” (Environmental Health Perspectives, 2018)
